Data from publication PMC4634939 (Journal of medicinal chemistry, 2015).

Tests used:
[1] = Hargreaves test for analgesia; conditions: rat, intrathecal morphine 15 μg plus vehicle, P < 0.05
TLR4 = target: T1, TLR4 (Mus musculus, UniProt Q9JHF9+Q9QUK6)
T1 sequence (Q9QUK6 26-835): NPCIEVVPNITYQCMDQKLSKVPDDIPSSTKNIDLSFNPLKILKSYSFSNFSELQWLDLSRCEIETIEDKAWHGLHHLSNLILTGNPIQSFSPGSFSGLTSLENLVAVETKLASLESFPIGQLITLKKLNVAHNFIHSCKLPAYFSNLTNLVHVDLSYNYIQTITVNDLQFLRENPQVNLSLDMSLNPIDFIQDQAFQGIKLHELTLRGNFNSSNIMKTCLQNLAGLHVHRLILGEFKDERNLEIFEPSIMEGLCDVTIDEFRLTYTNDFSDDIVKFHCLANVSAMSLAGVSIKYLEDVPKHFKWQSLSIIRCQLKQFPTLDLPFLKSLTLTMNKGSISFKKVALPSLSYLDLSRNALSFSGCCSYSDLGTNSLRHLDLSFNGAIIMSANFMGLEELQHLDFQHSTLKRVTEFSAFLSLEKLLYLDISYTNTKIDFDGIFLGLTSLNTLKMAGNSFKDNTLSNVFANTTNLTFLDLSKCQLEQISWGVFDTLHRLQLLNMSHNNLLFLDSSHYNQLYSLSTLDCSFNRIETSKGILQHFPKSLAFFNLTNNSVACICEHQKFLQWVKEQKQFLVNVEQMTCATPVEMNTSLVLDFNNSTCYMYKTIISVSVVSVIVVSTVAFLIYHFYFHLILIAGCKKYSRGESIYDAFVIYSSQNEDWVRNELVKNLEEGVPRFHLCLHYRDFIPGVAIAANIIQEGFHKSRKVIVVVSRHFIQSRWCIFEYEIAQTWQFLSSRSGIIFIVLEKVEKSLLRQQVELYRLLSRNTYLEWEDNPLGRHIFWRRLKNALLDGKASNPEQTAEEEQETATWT
T1 sequence (Q9JHF9 19-160): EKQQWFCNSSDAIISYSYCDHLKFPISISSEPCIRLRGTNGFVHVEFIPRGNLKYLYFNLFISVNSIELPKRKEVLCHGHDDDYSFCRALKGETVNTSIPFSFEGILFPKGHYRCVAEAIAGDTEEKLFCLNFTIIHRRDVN

Compound | analgesia to radiant heat compared to baseline [1] | ratio of cell viability IC50 (cytotoxicity) to TLR4 antagonist activity (TLR4; IC50 of viability / IC50 of NO) | TLR4 antagonist activity, times better than (+)-naltrexone (TLR4; relative to (+)-naltrexone 1a, NO assay in BV-2 cells)
CN1CC[C@]23c4c5ccc(O)c4O[C@H]2[C@@H](O)C=C[C@H]3[C@H]1C5 [morphine] | produced significant analgesia to radiant heat | – | –
O=C1CC[C@]2(O)[C@@H]3Cc4ccc(O)c5c4[C@]2(CCN3CCc2ccccc2)[C@@H]1O5 [1j, (4S,4aR,7aS,12bR)-4a,9-Dihydroxy-3-phenethyl-2,3,4,4a,5,6-hexahydro-1H-4,12-methanobenzofuro[3,2-e]isoquinolin-7(7aH)-one] | – | ~ 100 | ~ 75 fold
